This passage reports IC50 results from the Kinase Knowledgebase extract (Sharma et al. 2016).

Usually IC50 stands for the concentration that gives 50% inhibition. A lower IC50 goes with greater potency in that assay.

In the assay the target is EGFR (human) (UniProt P00533).
Sequence of EGFR (human) (P00533 whole entry, looked up): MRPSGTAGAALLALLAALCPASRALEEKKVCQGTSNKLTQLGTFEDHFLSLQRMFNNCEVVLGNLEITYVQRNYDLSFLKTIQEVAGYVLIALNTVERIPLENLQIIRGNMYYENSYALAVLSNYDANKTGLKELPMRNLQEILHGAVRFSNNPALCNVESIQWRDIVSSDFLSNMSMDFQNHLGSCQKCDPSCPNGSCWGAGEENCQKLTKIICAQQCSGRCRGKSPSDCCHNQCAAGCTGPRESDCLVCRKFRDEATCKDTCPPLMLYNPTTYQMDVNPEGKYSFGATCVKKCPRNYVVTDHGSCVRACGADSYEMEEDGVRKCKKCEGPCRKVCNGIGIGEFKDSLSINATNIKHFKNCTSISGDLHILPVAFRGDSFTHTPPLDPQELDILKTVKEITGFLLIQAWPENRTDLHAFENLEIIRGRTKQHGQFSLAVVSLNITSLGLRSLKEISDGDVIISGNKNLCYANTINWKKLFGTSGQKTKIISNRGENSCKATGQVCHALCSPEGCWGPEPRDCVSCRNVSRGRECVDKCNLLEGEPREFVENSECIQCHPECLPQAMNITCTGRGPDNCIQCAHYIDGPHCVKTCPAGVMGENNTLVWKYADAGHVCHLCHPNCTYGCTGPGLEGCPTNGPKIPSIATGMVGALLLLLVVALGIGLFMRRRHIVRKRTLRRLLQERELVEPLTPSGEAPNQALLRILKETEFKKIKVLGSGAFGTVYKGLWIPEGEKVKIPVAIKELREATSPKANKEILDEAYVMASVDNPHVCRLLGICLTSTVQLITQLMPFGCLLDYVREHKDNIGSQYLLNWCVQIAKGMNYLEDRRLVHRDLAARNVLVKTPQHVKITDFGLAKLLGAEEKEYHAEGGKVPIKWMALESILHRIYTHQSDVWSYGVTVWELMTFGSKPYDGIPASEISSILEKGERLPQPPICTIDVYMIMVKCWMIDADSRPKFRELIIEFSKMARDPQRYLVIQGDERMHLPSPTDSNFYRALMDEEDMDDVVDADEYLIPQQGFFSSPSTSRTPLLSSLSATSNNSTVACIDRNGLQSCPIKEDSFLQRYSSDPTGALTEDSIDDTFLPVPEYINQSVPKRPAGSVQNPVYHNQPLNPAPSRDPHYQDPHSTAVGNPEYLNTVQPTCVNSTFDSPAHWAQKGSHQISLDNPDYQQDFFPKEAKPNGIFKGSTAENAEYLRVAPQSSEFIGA
For the molecule `C=CC(=O)N1CCC[C@@H](n2nc(-c3ccc(CNS(=O)(=O)c4ccccc4C)cc3)c3c(N)ncnc32)C1`, the IC50 came out at 0.0918 µM. `C=CC(=O)N1CCC[C@@H](n2nc(-c3ccc(CNS(C)(=O)=O)cc3)c3c(N)ncnc32)C1` registered an IC50 of 0.112 µM. The molecule `C=CC(=O)N1CCC[C@@H](n2nc(-c3ccc(CNS(=O)(=O)c4cccc5ccccc45)cc3)c3c(N)ncnc32)C1` gave an IC50 of 0.0581 µM. Turning to `C=CC(=O)N1CCC[C@@H](n2nc(-c3ccc(CNS(=O)(=O)C4CCCCC4)cc3)c3c(N)ncnc32)C1`, the concentration for half-maximal inhibition (IC50) stood at 0.045 µM. In the case of `C=CC(=O)N1CCC[C@@H](n2nc(-c3ccc(CNS(=O)(=O)c4ccc(OC)cc4)cc3)c3c(N)ncnc32)C1` it was 0.129 µM; in that of `C=CC(=O)N1CCC[C@@H](n2nc(-c3ccc(CNS(=O)(=O)c4cc(F)ccc4OC)cc3)c3c(N)ncnc32)C1`, 0.163 µM. The result for `C=CC(=O)N1CCC[C@@H](n2nc(-c3ccc(CNS(=O)(=O)c4ccccc4C(F)(F)F)cc3)c3c(N)ncnc32)C1` reads 0.0863 µM. For the molecule `C=CC(=O)N1CCC[C@@H](n2nc(-c3ccc(CNS(=O)(=O)c4ccc(Cl)cc4)cc3)c3c(N)ncnc32)C1`, the half-inhibitory concentration (IC50) is 0.0605 µM. For the molecule `C=CC(=O)N1CCC[C@@H](n2nc(-c3ccc(CNS(=O)(=O)c4ccc(F)c(C(F)(F)F)c4)cc3)c3c(N)ncnc32)C1`, the IC50 came out at 0.199 µM.

Consider `C=CC(=O)N1CCC[C@@H](n2nc(-c3ccc(CNS(=O)(=O)c4cccc(Cl)c4)cc3)c3c(N)ncnc32)C1`, for which the concentration for half-maximal inhibition (IC50) was 0.0457 µM. As for `C=CC(=O)N1CCC[C@@H](n2nc(-c3ccc(CNS(=O)(=O)c4cccc(C)c4)cc3)c3c(N)ncnc32)C1`, the IC50 came out at 0.0862 µM.

Molecule `C=CC(=O)N1CCC[C@@H](n2nc(-c3ccc(CNS(=O)(=O)c4ccc(F)cc4F)cc3)c3c(N)ncnc32)C1` displayed an IC50 of 0.124 µM. In the case of `C=CC(=O)N1CCC[C@@H](n2nc(-c3ccc(CNS(=O)(=O)c4c(F)cccc4F)cc3)c3c(N)ncnc32)C1` it was 0.0957 µM. Turning to `C=CC(=O)N1CCC[C@@H](n2nc(-c3ccc(CNS(=O)(=O)c4ccccc4OC(F)(F)F)cc3)c3c(N)ncnc32)C1`, the IC50 came to 0.453 µM. The molecule `C=CC(=O)N1CCC[C@@H](n2nc(-c3ccc(CNS(=O)(=O)c4cc(Cl)ccc4F)cc3)c3c(N)ncnc32)C1` came in with a concentration for half-maximal inhibition (IC50) of 0.12 µM. Consider `C=CC(=O)N1CCC[C@@H](n2nc(-c3ccc(CN(C)S(=O)(=O)c4ccccc4F)cc3)c3c(N)ncnc32)C1`, for which the IC50 came to 0.0788 µM. Molecule `C=CC(=O)N1CCC[C@@H](n2nc(-c3ccc(CNS(=O)(=O)c4ccccc4)cc3)c3c(N)ncnc32)C1` yielded a half-maximal inhibitory concentration (IC50) of 0.265 µM. In turn, `C=CC(=O)N1CCC[C@@H](n2nc(-c3ccc(CNS(=O)(=O)c4cc(C)ccc4F)cc3)c3c(N)ncnc32)C1` showed an IC50 of 0.0646 µM. `C=CC(=O)N1CCC[C@@H](n2nc(-c3ccc(CNS(=O)(=O)c4ccc5c(c4)CCC5)cc3)c3c(N)ncnc32)C1` displayed an IC50 of 0.0733 µM.

In turn, `C=CC(=O)N1CCC[C@@H](n2nc(-c3ccc(CNS(=O)(=O)c4ccc5ccccc5c4)cc3)c3c(N)ncnc32)C1` registered a half-inhibitory concentration (IC50) of 0.0987 µM.

As to `C=CC(=O)N1CCC[C@@H](n2nc(-c3ccc(CNS(=O)(=O)c4ccccc4Cl)cc3)c3c(N)ncnc32)C1`, the IC50 was 0.168 µM. Molecule `N#CN1CCC[C@@H](n2nc(-c3ccc(CNS(=O)(=O)c4cccc(Cl)c4)cc3)c3c(N)ncnc32)C1` yielded an IC50 of 0.572 µM.

On to `C=CC(=O)N1CCC[C@@H](n2nc(-c3ccc(CNS(=O)(=O)c4cccc(F)c4)cc3)c3c(N)ncnc32)C1`, for which the half-maximal inhibitory concentration (IC50) turned out to be 0.0817 µM.

`C=CC(=O)N1CCC[C@@H](n2nc(-c3ccc(CNS(=O)(=O)c4ccc(C)cc4C)cc3)c3c(N)ncnc32)C1` registered an IC50 of 0.249 µM. Molecule `C=CC(=O)N1CCC[C@@H](n2nc(-c3ccc(CNS(=O)(=O)c4ccc(F)cc4)cc3)c3c(N)ncnc32)C1` registered an IC50 of 0.363 µM. Consider `C=CC(=O)N1CCC[C@@H](n2nc(-c3ccc(CNS(=O)(=O)c4ccc(-c5ccccc5)cc4)cc3)c3c(N)ncnc32)C1`, for which the IC50 was 0.073 µM. In turn, `C=CC(=O)N1CCC[C@@H](n2nc(-c3ccc(CNS(=O)(=O)c4ccc(C)cc4F)cc3)c3c(N)ncnc32)C1` had an IC50 of 0.174 µM. `C=CC(=O)N1CCC[C@@H](n2nc(-c3ccc(CNS(=O)(=O)c4cc(F)cc(C(F)(F)F)c4)cc3)c3c(N)ncnc32)C1` came in with a half-maximal inhibitory concentration (IC50) of 0.0977 µM. Regarding `N#CN1CCC[C@@H](n2nc(-c3ccc(CNS(=O)(=O)c4cccc(F)c4)cc3)c3c(N)ncnc32)C1`, the IC50 was found to be 0.272 µM. With `C=CC(=O)N1CCC[C@@H](n2nc(-c3ccc(CNS(=O)(=O)c4ccc(OCC)cc4)cc3)c3c(N)ncnc32)C1`, the half-maximal inhibitory concentration (IC50) turned out to be 0.371 µM. For the molecule `C=CC(=O)N1CCC[C@@H](n2nc(-c3ccc(CNS(=O)(=O)c4cc(C)ccc4OC)cc3)c3c(N)ncnc32)C1`, the 50% inhibitory concentration (IC50) stood at 0.351 µM.

As to `C=CC(=O)N1CCC[C@@H](n2nc(-c3ccc(CNS(=O)(=O)c4cc(C)ccc4C)cc3)c3c(N)ncnc32)C1`, the IC50 stood at 0.194 µM. `C=CC(=O)N1CCC[C@@H](n2nc(-c3ccc(CNS(=O)(=O)CC)cc3)c3c(N)ncnc32)C1` gave a concentration for half-maximal inhibition (IC50) of 0.132 µM. In the case of `C=CC(=O)N1CCC[C@@H](n2nc(-c3ccc(CNS(=O)(=O)CCC(F)(F)F)cc3)c3c(N)ncnc32)C1`, the half-maximal inhibitory concentration (IC50) turned out to be 0.277 µM. In turn, `C=CC(=O)N1CCC[C@@H](n2nc(-c3ccc(CNS(=O)(=O)c4ccc(C)cc4OC)cc3)c3c(N)ncnc32)C1` registered a concentration for half-maximal inhibition (IC50) of 0.323 µM. `C=CC(=O)N1CCC[C@@H](n2nc(-c3ccc(CNS(=O)(=O)c4cc(C(F)(F)F)ccc4F)cc3)c3c(N)ncnc32)C1` returned an IC50 of 0.151 µM.

Molecule `C=CC(=O)N1CCC[C@@H](n2nc(-c3ccc(CNS(=O)(=O)c4cc(F)cc(F)c4)cc3)c3c(N)ncnc32)C1` yielded an IC50 of 0.12 µM. Take `C=CC(=O)N1CCC[C@@H](n2nc(-c3ccc(CNS(=O)(=O)c4cccc(OC)c4)cc3)c3c(N)ncnc32)C1`: the IC50 worked out at 0.29 µM. For the molecule `C=CC(=O)N1CCC[C@@H](n2nc(-c3ccc(CNS(=O)(=O)c4ccccc4F)cc3)c3c(N)ncnc32)C1`, the concentration for half-maximal inhibition (IC50) is 0.041 µM. In turn, `C=CC(=O)N1CCC[C@@H](n2nc(-c3ccc(CNS(=O)(=O)c4ccc(C)cc4)cc3)c3c(N)ncnc32)C1` registered an IC50 of 0.0907 µM.
